For assay [1], the target named is T1, AHR (Homo sapiens, UniProt P35869).
T1 construct: U87 MG glioblastoma cells (ATCC #HTB-14) endogenously expressing AHR; endogenous in cells; host or cells: U87 MG glioblastoma cells (ATCC #HTB-14)
T1 sequence (P35869 11-848): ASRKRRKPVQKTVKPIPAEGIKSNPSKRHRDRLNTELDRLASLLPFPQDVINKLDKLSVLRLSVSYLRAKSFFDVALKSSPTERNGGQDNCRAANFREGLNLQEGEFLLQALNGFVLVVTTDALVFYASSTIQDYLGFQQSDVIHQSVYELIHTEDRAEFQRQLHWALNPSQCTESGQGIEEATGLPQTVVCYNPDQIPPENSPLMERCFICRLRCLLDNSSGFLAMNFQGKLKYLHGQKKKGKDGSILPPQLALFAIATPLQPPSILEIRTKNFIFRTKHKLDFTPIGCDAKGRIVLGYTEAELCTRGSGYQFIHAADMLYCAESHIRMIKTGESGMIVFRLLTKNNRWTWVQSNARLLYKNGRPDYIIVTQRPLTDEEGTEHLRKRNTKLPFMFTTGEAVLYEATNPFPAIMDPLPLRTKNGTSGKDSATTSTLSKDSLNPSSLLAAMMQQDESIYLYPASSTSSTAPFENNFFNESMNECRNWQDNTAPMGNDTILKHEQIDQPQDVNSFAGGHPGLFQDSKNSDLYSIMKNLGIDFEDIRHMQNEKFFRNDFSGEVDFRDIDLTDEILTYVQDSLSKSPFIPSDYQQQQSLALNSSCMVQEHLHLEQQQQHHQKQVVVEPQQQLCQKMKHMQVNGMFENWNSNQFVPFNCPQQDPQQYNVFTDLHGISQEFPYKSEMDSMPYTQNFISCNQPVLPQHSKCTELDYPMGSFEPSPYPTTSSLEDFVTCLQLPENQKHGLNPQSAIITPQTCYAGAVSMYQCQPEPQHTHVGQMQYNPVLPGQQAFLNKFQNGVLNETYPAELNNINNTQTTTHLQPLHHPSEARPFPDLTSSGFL
The assay can be described thus: In vitro assay 1: antagonism in human cell line (AHR transactivation, firefly luciferase reporter, kynurenic acid prestimulated). In kind it is cell-based. To be noted: AHR Antagonism Human IC50 [M]. The method, boiled down: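 U87 MG glioblastoma cells with endogenous AHR, stably carrying a DRE-driven firefly luciferase reporter and constitutive Renilla reporter, prestimulated with kynurenic acid before compound addition. Firefly and Renilla read by dual luciferase; Renilla flags toxicity; normalized to controls (150 μM kynurenic acid + 5 μM staurosporine as full inhibition); repeat values averaged or median.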
A general note: A reporter such as luciferase makes a cellular process visible.

Assay [2] deals with T2, AHR (Mus musculus, UniProt P30561).
T2 sequence (P30561 1-848 P471L/N533S/M589L): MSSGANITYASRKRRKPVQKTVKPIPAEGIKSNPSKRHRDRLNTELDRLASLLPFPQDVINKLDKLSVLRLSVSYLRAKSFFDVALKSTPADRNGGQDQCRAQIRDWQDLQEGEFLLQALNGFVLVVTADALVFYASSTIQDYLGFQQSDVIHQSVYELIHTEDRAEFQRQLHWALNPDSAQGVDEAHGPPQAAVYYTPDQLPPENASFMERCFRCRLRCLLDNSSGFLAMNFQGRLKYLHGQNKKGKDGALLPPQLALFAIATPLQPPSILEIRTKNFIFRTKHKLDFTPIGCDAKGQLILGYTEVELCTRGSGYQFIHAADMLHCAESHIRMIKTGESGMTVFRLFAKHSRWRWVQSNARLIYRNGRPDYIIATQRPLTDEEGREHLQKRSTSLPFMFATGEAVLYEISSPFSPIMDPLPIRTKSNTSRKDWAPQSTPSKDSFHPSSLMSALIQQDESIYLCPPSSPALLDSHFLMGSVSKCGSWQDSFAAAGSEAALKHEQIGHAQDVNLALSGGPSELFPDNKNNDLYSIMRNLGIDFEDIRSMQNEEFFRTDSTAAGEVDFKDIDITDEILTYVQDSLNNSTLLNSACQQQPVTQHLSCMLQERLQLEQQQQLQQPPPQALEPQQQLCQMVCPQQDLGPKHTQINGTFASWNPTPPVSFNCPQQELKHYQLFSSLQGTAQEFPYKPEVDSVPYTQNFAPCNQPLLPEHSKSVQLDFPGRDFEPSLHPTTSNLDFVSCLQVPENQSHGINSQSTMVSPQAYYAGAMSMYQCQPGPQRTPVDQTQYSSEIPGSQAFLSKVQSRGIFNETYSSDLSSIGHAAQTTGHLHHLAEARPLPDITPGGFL
The assay can be described thus: In vitro assay 3: antagonism in mouse cell line (AHR transactivation, firefly luciferase reporter, kynurenic acid prestimulated). In kind it is cell-based. To be noted: mouse Hepa 1c1c7 cells, 200 μM kynurenic acid, 20 hours, read-out: AHR Antagonism Mouse IC50. The method, boiled down: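 Mouse cells stably carrying a DRE-driven, AHR-inducible firefly luciferase reporter were prestimulated with the endogenous agonist kynurenic acid before compound addition. Luciferase activity was measured by luminescence and normalized to positive and negative controls, with cells lacking kynurenic acid serving as full-inhibition control. Repeat tests are reported as mean or median.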

As usually defined, the IC50 is the concentration at which inhibition is half-maximal.

Bounds are passed on as bounds.

In the case of `CCCCNC(=O)CNc1nc2ccccc2c2nc(-c3ccncc3F)nn12` [Example 485, N-butyl-N^2-[2-(3-fluoropyridin-4-yl)[1,2,4]triazolo[1,5-c]quinazolin-5-yl]glycinamide], the IC50 against AHR [1] was determined as 7.54e-07 M; on AHR [2], 10100 nM.
As for `CCC[C@@H](Nc1nc2ccccc2c2nc(-c3ccncc3F)nn12)C(=O)NC` [Example 486, N^2-[2-(3-fluoropyridin-4-yl)[1,2,4]triazolo[1,5-c]quinazolin-5-yl]-N-methyl-D-norvalinamide], the IC50 turned out to be 3.34e-07 M against AHR [1] and 184 nM on AHR [2].
Take `CCCNC(=O)[C@@H](C)Nc1nc2ccccc2c2nc(-c3ccncc3F)nn12` [Example 487, N^2-[2-(3-fluoropyridin-4-yl)[1,2,4]triazolo[1,5-c]quinazolin-5-yl]-N-propyl-D-alaninamide]: the IC50 against AHR [1] is 3.26e-07 M; on AHR [2], 200 nM.
The matching figures for `O=C1NCCCC[C@H]1Nc1nc2ccccc2c2nc(-c3cccnc3C(F)(F)F)nn12` [Example 488, (3R)-3-({2-[2-(trifluoromethyl)pyridin-3-yl][1,2,4]triazolo[1,5-c]quinazolin-5-yl}amino)azepan-2-one]: 6.4e-08 M and 12.3 nM.
The matching figures for `CC[C@@H](Nc1nc2ccccc2c2nc(-c3cccnc3C(F)(F)F)nn12)C(N)=O` [Example 489, (2R)-2-({2-[2-(trifluoromethyl)pyridin-3-yl][1,2,4]triazolo[1,5-c]quinazolin-5-yl}amino)butanamide]: 4.24e-07 M and 43.3 nM.
In the same order, the values of `O=C1NCCCC[C@H]1Nc1nc2ccccc2c2nc(-c3cnccc3C(F)(F)F)nn12` [Example 490, (3R)-3-({2-[4-(trifluoromethyl)pyridin-3-yl][1,2,4]triazolo[1,5-c]quinazolin-5-yl}amino)azepan-2-one] are 4.25e-08 M and 50.6 nM.
Take `CC[C@@H](Nc1nc2ccccc2c2nc(-c3cnccc3C(F)(F)F)nn12)C(N)=O` [Example 491, (2R)-2-({2-[4-(trifluoromethyl)pyridin-3-yl][1,2,4]triazolo[1,5-c]quinazolin-5-yl}amino)butanamide]: the IC50 against AHR [1] stood at 9.72e-08 M; at AHR [2], 50.5 nM.
In the case of `O=C1NCCCC[C@H]1Nc1nc2ccccc2c2nc(-c3cc(F)ccc3OC(F)(F)F)nn12` [Example 492, (3R)-3-({2-[5-fluoro-2-(trifluoromethoxy)phenyl][1,2,4]triazolo[1,5-c]quinazolin-5-yl}amino)azepan-2-one], the IC50 at AHR [1] was 2.22e-08 M; at AHR [2] it was 5.71 nM.
The matching figures for `O=C1NCCCC[C@@H]1Nc1nc2ccccc2c2nc(-c3cc(F)ccc3OC(F)(F)F)nn12` [Example 493, (3S)-3-({2-[5-fluoro-2-(trifluoromethoxy)phenyl][1,2,4]triazolo[1,5-c]quinazolin-5-yl}amino)azepan-2-one]: over 2e-05 M and 36.9 nM.
`CCC[C@@H](Nc1nc2ccccc2c2nc(-c3cc(F)ccc3OC(F)(F)F)nn12)C(=O)NC` [Example 494, N^2-{2-[5-fluoro-2-(trifluoromethoxy)phenyl][1,2,4]triazolo[1,5-c]quinazolin-5-yl}-N-methyl-D-norvalinamide]: the IC50 turned out to be 2.28e-07 M on AHR [1] and 11.1 nM on AHR [2].
The matching figures for `CCCNC(=O)[C@@H](C)Nc1nc2ccccc2c2nc(-c3cc(F)ccc3OC(F)(F)F)nn12` [Example 495, N^2-{2-[5-fluoro-2-(trifluoromethoxy)phenyl][1,2,4]triazolo[1,5-c]quinazolin-5-yl}-N-propyl-D-alaninamide]: 7.03e-08 M and 13.2 nM.
In the same order, the values of `CC[C@@H](Nc1nc2ccccc2c2nc(-c3cc(F)ccc3OC(F)(F)F)nn12)C(N)=O` [Example 496, (2R)-2-({2-[5-fluoro-2-(trifluoromethoxy)phenyl][1,2,4]triazolo[1,5-c]quinazolin-5-yl}amino)butanamide] are 4.66e-08 M and 1.9 nM.
The matching figures for `O=C1NCCCC[C@@H]1Nc1nc2ccccc2c2nc(-c3cc(Cl)ccc3OC(F)(F)F)nn12` [Example 498, (3S)-3-({2-[5-chloro-2-(trifluoromethoxy)phenyl][1,2,4]triazolo[1,5-c]quinazolin-5-yl}amino)azepan-2-one]: over 2e-05 M and 700 nM.
For `O=C1NCCC[C@H]1Nc1nc2ccccc2c2nc(-c3cc(Cl)ccc3OC(F)(F)F)nn12` [Example 499, (3R)-3-({2-[5-chloro-2-(trifluoromethoxy)phenyl][1,2,4]triazolo[1,5-c]quinazolin-5-yl}amino)piperidin-2-one], the figures for the IC50 at AHR [1] and on AHR [2] were over 2e-05 M and over 20000 nM, respectively.
Take `O=C1NCC[C@H]1Nc1nc2ccccc2c2nc(-c3cc(Cl)ccc3OC(F)(F)F)nn12` [Example 500, (3R)-3-({2-[5-chloro-2-(trifluoromethoxy)phenyl][1,2,4]triazolo[1,5-c]quinazolin-5-yl}amino)pyrrolidin-2-one]: the IC50 against AHR [1] was over 2e-05 M; at AHR [2] it was 2970 nM.
In the same order, the values of `CCC[C@@H](Nc1nc2ccccc2c2nc(-c3cc(Cl)ccc3OC(F)(F)F)nn12)C(=O)NC` [Example 501, N^2-{2-[5-chloro-2-(trifluoromethoxy)phenyl][1,2,4]triazolo[1,5-c]quinazolin-5-yl}-N-methyl-D-norvalinamide] are over 2e-05 M and 90.8 nM.
In the same order, the values of `CCCCNC(=O)CNc1nc2ccccc2c2nc(-c3cc(Cl)ccc3OC(F)(F)F)nn12` [Example 503, N-butyl-N^2-{2-[5-chloro-2-(trifluoromethoxy)phenyl][1,2,4]triazolo[1,5-c]quinazolin-5-yl}glycinamide] are over 2e-05 M and over 20000 nM.
Take `CC[C@@H](Nc1nc2ccccc2c2nc(-c3cc(Cl)ccc3OC(F)(F)F)nn12)C(N)=O` [Example 504, (2R)-2-({2-[5-chloro-2-(trifluoromethoxy)phenyl][1,2,4]triazolo[1,5-c]quinazolin-5-yl}amino)butanamide]: the IC50 against AHR [1] stood at 3.65e-07 M; at AHR [2] it was 37.9 nM.
The matching figures for `O=C1NCCCC[C@H]1Nc1nc2ccccc2c2nc(-c3cc(Br)ccc3OC(F)(F)F)nn12` [Example 505, (3R)-3-({2-[5-bromo-2-(trifluoromethoxy)phenyl][1,2,4]triazolo[1,5-c]quinazolin-5-yl}amino)azepan-2-one]: over 2e-05 M and 50.7 nM.
In the case of `O=C1NCCCC[C@@H]1Nc1nc2ccccc2c2nc(-c3cc(Br)ccc3OC(F)(F)F)nn12` [Example 506, (3S)-3-({2-[5-bromo-2-(trifluoromethoxy)phenyl][1,2,4]triazolo[1,5-c]quinazolin-5-yl}amino)azepan-2-one], the IC50 at AHR [1] was over 2e-05 M; at AHR [2] it was over 20000 nM.
In the same order, the values of `CC[C@@H](Nc1nc2ccccc2c2nc(-c3cc(Br)ccc3OC(F)(F)F)nn12)C(N)=O` [Example 507, (2R)-2-({2-[5-bromo-2-(trifluoromethoxy)phenyl][1,2,4]triazolo[1,5-c]quinazolin-5-yl}amino)butanamide] are 3.44e-07 M and 41.2 nM.
